Data as given in patent US20130289014A1, “Combination therapy in treatment of oncological and fibrotic diseases” (BOEHRINGER INGELHEIM INTERNATIONAL GMBH, priority 2010, published 2013).

Assays:
[1] = system: Calu-6 xenografts (human NSCLC tumor cell line); assay: Calu-6 NSCLC subcutaneous xenograft, single agents and combination; assay type: in vivo, mice; settings: Calu-6, d40; large tumors, ca. 350 mm^3 at start of treatment
Experimental: In order to analyse the anti-tumor effects of combining the inhibition of tumor angiogenesis by interfering with the VEGFR signalling cascade with the antitumor activity of inhibiting Aurora kinase B, the following in vivo experiment is performed. Nude mice carrying established subcutaneous Calu-6 xenografts (human NSCLC tumor cell line) are randomized and treated with either the Aurora B kinase inhibitor of this invention Compound X or BIBF 1120 alone or with the combination of both drugs. After termination of treatment the tumors on the control treated mice (black line with circles in FIG. 1) are in average about 1100 mm^3 in volume.
FIG. 1: Calu-6 NSCLC model, combination BIBF 1120+Compound X, schedule (cf. Drawings; control group: line with circles; BIBF 1120 treated group: line with rhombs; Compound X (AKI) treated group: line with triangles; Combo BIBF 1120+Compound X (AKI) treated group: line with squares).

NCI-H460 cells [2] = assay: Apoptosis: cleaved PARP Western blot and nuclear fragmentation of DAPI-stained cells; assay type: cell-based, human; settings: NCI-H460, after 72 h and 96 h of treatment
Experimental: (§1) Compound X was profiled in enzymatic kinase assays as well as in proliferation assays on various human cancer cell lines. Cell cycle status was assessed by DNA content analysis (Cellomics ArrayScan, FACScalibur). Histone H3 phosphorylation was determined by immunofluorescence (Cellomics ArrayScan). Apoptosis was detected by Western blotting for cleaved PARP and microscopic enumeration of DAPI-stained cells showing nuclear fragmentation. Senescent cells were identified by staining for SA-β-Gal activity.

[3] = system: 46 additional kinases representative of the human kinome; assay: Panel of 46 additional kinases; assay type: biochemical; settings: Compound at 1000 nM
Experimental: as §1

human Aurora B kinase = human Aurora B kinase (Homo sapiens, UniProt Q96GD4); assay: Enzymatic kinase assay, Aurora B; assay type: biochemical
human Aurora B kinase, sequence (Q96GD4 whole entry): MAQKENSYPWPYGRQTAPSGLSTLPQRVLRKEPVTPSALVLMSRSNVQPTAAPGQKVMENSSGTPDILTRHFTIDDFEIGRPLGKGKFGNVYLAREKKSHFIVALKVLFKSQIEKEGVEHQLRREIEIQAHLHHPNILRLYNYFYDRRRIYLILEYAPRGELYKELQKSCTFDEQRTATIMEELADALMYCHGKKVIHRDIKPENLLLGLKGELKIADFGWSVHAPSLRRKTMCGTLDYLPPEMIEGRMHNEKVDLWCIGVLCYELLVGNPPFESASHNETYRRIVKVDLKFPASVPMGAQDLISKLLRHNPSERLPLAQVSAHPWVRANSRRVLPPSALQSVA
Experimental: as §1

NCI-H460 cells [4] = assay: Senescence by SA-β-Gal staining; assay type: cell-based, human; settings: NCI-H460, within 96 h; from <3%
Experimental: as §1

MV-4; 11 = assay: AML cancer model MV-4;11; assay type: in vivo; settings: MV-4;11 AML model
THP-1 = assay: AML cancer model THP-1; assay type: in vivo; settings: THP-1 AML model
HCT 116 colon carcinoma = HCT 116 colon carcinoma subcutaneous xenograft; assay type: in vivo, mice; settings: for T/C: HCT 116
Experimental: (§2) BomTac:NMRI-Foxn1^nu mice were grafted subcutaneously with NCI-H460 non-small cell lung carcinoma (mutant KRAS, wild-type p53), HCT 116 colon carcinoma (mutant KRAS, wild-type p53) or BxPC-3 pancreas adenocarcinoma cells (wild-type KRAS, mutant p53). Treatment was initiated when the tumors had reached a volume of ˜50 mm^3. BI 811283 was injected intravenously once or twice weekly as a single bolus or b.i.d. Alternatively, the compound was administered once-weekly by a continuous 24 h infusion via subcutaneously implanted osmotic mini-pumps. Multiple dose levels and dosing schedules were evaluated.

Aurora A kinase = molecular target: T1, Aurora A kinase (Homo sapiens, UniProt O14965); assay: Enzymatic kinase assay, Aurora A; assay type: biochemical
T1 sequence (O14965 1-403): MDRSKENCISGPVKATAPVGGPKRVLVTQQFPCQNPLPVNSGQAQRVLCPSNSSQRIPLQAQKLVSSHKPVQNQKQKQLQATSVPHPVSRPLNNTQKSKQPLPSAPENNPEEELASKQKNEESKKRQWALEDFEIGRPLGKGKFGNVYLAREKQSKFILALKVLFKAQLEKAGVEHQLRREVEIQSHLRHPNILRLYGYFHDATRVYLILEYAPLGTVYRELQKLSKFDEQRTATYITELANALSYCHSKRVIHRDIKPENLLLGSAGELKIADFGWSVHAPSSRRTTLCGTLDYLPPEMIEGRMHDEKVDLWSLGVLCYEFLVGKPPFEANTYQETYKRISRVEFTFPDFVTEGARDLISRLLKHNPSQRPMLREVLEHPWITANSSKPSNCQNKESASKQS
Experimental: as §1

[5] = system: BxPC-3 pancreas adenocarcinoma; assay: BxPC-3 pancreas adenocarcinoma subcutaneous xenograft; assay type: in vivo, mice; settings: for T/C: BxPC-3
Experimental: as §2

human cancer cell lines = assay: Proliferation assays on human cancer cell lines; assay type: cell-based; settings: >20 human cancer cell lines; read-out: EC50 for inhibition of proliferation
Experimental: as §1

NCI-H460 cells [6] = assay: Cell cycle status by DNA content analysis (polyploidy); assay type: cell-based, human; settings: NCI-H460, within 48 h of treatment; increased from <5%
Experimental: as §1

[7] = system: histone H3 phosphorylation in NCI-H460 cells; assay: Histone H3 phosphorylation by immunofluorescence (Cellomics ArrayScan); assay type: cell-based, human
Experimental: as §1

Aurora C kinase = molecular target: T2, Aurora C kinase (Homo sapiens, UniProt Q9UQB9); assay: Enzymatic kinase assay, Aurora C; assay type: biochemical
T2 sequence (Q9UQB9 1-309): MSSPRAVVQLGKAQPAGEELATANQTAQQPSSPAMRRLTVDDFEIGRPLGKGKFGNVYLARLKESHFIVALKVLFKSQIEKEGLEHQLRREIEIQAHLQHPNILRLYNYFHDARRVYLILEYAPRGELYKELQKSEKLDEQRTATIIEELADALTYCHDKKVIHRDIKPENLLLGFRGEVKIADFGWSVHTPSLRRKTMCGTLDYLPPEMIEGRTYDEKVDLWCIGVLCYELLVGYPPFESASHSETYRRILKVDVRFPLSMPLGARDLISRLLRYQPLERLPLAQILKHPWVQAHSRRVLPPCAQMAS
Experimental: as §1

[8] = system: NCI-H460 non-small cell lung carcinoma; assay: NCI-H460 non-small cell lung carcinoma subcutaneous xenograft; assay type: in vivo, mice; settings: for T/C: NCI-H460
Experimental: as §2

[9] = 15 BID mg/kg, weekly dose 60 mg/kg, (qdx2)x6, i.v.

Structure (SMILES): COC(=O)c1ccc2c(c1)NC(=O)/C2=C(\Nc1ccc(N(C)C(=O)CN2CCN(C)CC2)cc1)c1ccccc1 [BIBF 1120, 3-Z-[1-(4-(N-((4-methyl-piperazin-1-yl)-methylcarbonyl)-N-methyl-amino)-anilino)-1-phenyl-methylene]-6-methoxycarbonyl-2-indolinone]
- median T/C value [1]: 50%

Structure (SMILES): CC(C)NC(=O)[C@H]1CCC[C@H]1Nc1nc(Nc2ccc(C(=O)N(C)C3CCN(C)CC3)cc2)ncc1C(F)(F)F [Compound X]
- cleaved poly (ADP-ribose) polymerase (NCI-H460 cells [2]): An increase of cleaved poly (ADP-ribose) polymerase
- fraction of cells with nuclear fragmentation (NCI-H460 cells [2]; from <1%): 7%
- kinases inhibited by more than 50% [3]: 7/46
- IC50 (human Aurora B kinase): 9 nM
- senescent cells, fraction of the population (NCI-H460 cells [4]): 25%
- T/C value (MV-4; 11): 5%
- T/C value (THP-1): 7%
- effect on large tumors (HCT 116 colon carcinoma; HCT 116, large tumors (350 mm^3)): regression of large tumors (350 mm^3) was induced
- T/C (HCT 116 colon carcinoma; 20 mg/kg, weekly dose 20 mg/kg, (q7d)x5, 24 h cont. inf.): 2%
- T/C (HCT 116 colon carcinoma; 30 mg/kg, weekly dose 60 mg/kg, (qdx2)x6, i.v.): 25%
- T/C (HCT 116 colon carcinoma; [9]): 4%
- T/C (HCT 116 colon carcinoma; 37.5 BID mg/kg, weekly dose 75 mg/kg, (q7d)x6, i.v.): 8%
- histological examination of tumors (HCT 116 colon carcinoma; HCT 116 tumors): accumulation of enlarged, multinucleated cells
- phosphorylation of histone H3 in tumors (biomarker analysis) (HCT 116 colon carcinoma; HCT 116 tumors, therapeutic doses): inhibited phosphorylation of histone H3
- effect on tumor growth (HCT 116 colon carcinoma; colon carcinoma model, multiple cycles, total weekly doses of 20 to 75 mg/kg): dose-dependent inhibition of tumor growth or tumor regression
- IC50 (Aurora A kinase): 70 nM
- T/C ([5]; 20 mg/kg, weekly dose 20 mg/kg, (q7d)x4, 24 h cont. inf.): 6%
- T/C [5, 9]: 17%
- effect on tumor growth ([5]; pancreas carcinoma model, multiple cycles, total weekly doses of 20 to 75 mg/kg): dose-dependent inhibition of tumor growth or tumor regression
- EC50 (human cancer cell lines): 2 to 14 nM
- fraction of polyploid cells (NCI-H460 cells [6]): > 80%
- time to inhibition of histone H3 phosphorylation [7]: < 1 h
- IC50 (Aurora C kinase): 17 nM
- T/C ([8]; 20 mg/kg, weekly dose 20 mg/kg, (q7d)x3, 24 h cont. inf.): 8%
- T/C ([8]; 15 BID mg/kg, weekly dose 60 mg/kg, (qdx2)x3, i.v.): 27%
- effect on tumor growth ([8]; non-small cell lung cancer model, multiple cycles, total weekly doses of 20 to 75 mg/kg): dose-dependent inhibition of tumor growth or tumor regression
- median T/C value [1]: 45%
